Laboratory results reported in paper PMC5898707, “Piperazinyl fragment improves anticancer activity of Triapine” (PLoS ONE, 2018).
Where two headings read alike, the source gives them in different places. Blank lines part the entries; values can stand above or below the compound they belong to.

How the values were obtained:
HCT116 p53^+/+ = test: Cytotoxicity MTS assay, 72 h; format: cell-based, human; settings: for IC50: Homo sapiens, HCT-116, HCT116 p53^+/+, 72 h, MTS
Excerpt: (§1) The human colon carcinoma cell line HCT116 wild type (p53^+/+), human breast carcinoma cell line MCF-7 and glioblastoma cell line Hs683 were obtained from ATCC. The glioma cell line U-251 was purchased from Sigma Aldrich and the normal human fibroblast cell lines NHDF from PromoCell. The human colon cancer cell line HCT116 with a p53 deletion (p53^-/-) was kindly provided by Prof. M. Rusin from the Maria Sklodowska-Curie Memorial Cancer Centre and Institute of Oncology in Gliwice, Poland. Cells were grown as monolayer cultures in Dulbecco’s modified Eagle’s medium with an antibiotic gentamicin (200 μL/100 mL medium) in 75 cm^2 flasks (Nunc). DMEM for HCT116, MCF-7, U-251, Hs683 were supplemented with 12% heat-inactivated fetal bovine serum (Sigma) and for NHDF with 15% non-inactivated fetal bovine serum (Sigma). All the cell lines were cultured under standard conditions at 37°C in a humidified atmosphere at 5% CO2.
(§2) The cells were seeded in 96-well plates (Nunc) at a density of 5,000 cells/well (HCT116, MCF-7, U-251, Hs683) and 4,000 cells/well (NHDF) and incubated at 37°C for 24 h. The assay was performed following a 72 h incubation with varying concentrations of the compounds that were tested. Then, 20 μL of The CellTiter 96®AQueous One Solution-MTS (Promega) solution was added to each well (with 100 μL DMEM without phenol red) and incubated for 1 h at 37°C. The optical densities of the samples were analyzed at 490 nm using a multi-plate reader (Synergy 4, Bio Tek). Results were expressed as a percentage of the control and calculated as the inhibitory concentration (IC50) values using GraphPad Prism 5. The IC50 parameter was defined as the compound concentration that was necessary to reduce the proliferation of cells to 50% of the untreated control. Each individual compound was tested in triplicate in a single experiment with each experiment being repeated four to five times.

HCT116 p53^-/- = test: Cytotoxicity MTS assay, 72 h; format: cell-based, human; settings: for IC50: Homo sapiens, HCT-116, HCT116 p53^-/-, 72 h, MTS
Excerpt: as §1, §2

Hs683 = test: Cytotoxicity MTS assay, 72 h; format: cell-based, human; settings: for IC50: Homo sapiens, Hs 683, Hs683, 72 h, MTS
Excerpt: as §1, §2

MCF-7 = test: Cytotoxicity MTS assay, 72 h; format: cell-based, human; settings: for IC50: Homo sapiens, MCF7, MCF-7, 72 h, MTS
Excerpt: as §1, §2

U-251 = test: Cytotoxicity MTS assay, 72 h; format: cell-based, human; settings: for IC50: Homo sapiens, U-251, 72 h, MTS
Excerpt: as §1, §2

NHDF = test: Cytotoxicity MTS assay, 72 h; format: cell-based; settings: Homo sapiens, NHDF normal fibroblasts
Excerpt: as §1, §2

[1] = Protonation constants by pH-dependent UV-visible spectrophotometric titration; format: physicochemical; settings: MeOH/H2O 80/20 by weight, I = 0.1 M KCl, T = 25.0°C
Method: Spectrophotometric titrations were performed in order to probe the acid-based equilibria that were associated with each ligand and to determine the pH range over which the chelator was in its charge neutral form. This property is important in understanding the passage of a molecule through the cell membranes, as charged chelators have poor access. These studies were performed in an 80% (w/w) MeOH/H2O solvent mixture due to the low solubility of these compounds in pure water. The fully protonated forms of the ligands have four L^1-L^7 or five L^8-L^12 dissociable protons, respectively. […] An additional proton in L^8-L^12 derives from the additional pyridine, pyrimidine or pyrazine ring, respectively; however, not all of them could be determined under these experimental conditions. The protonation constants that were obtained are given in Table 1 and the species distribution diagram of the protonated species of the selected ligand is presented in Fig 3.
To determine the acid-base properties of the studied ligands, UV-visible spectrophotometric experiments as a function of p[H] were carried out in the pH range 2–11.
UV-Visible titrations were also carried out. The absorption spectra (200–800 nm) were recorded using a Jasco V630 spectrophotometer. The initial pH of 3.2 mL ligand samples was adjusted to be acidic or basic and the titration of the solution was then carried out by adding known volumes of NaOH or HCl, respectively. The spectrophotometric data were fitted using the HypSpec program. Distribution diagrams of the species were calculated using Hyperquad Simulation and Speciation (HySS) software.

HCT116 p53^+/+ cells = test: Western blot of cell cycle and cell death proteins; format: cell-based, human; settings: 24 h, L^9 at four-fold IC50
Method: (§3) The HCT116 (p53^+/+), U-251 and MCF-7 cells were seeded in 3 cm Petri dishes (Nunc) at a density of 0.5·10^6 cells/well and incubated overnight. […] Cells were harvested by trypsinization, washed with cold PBS and cell pellets were obtained by centrifugation at 2,000 rpm. Total cell lysates were obtained by dissolving the cell pellets in 150 μL of a RIPA buffer (Thermo Scientific) containing a Halt Protease Inhibitor Cocktail (Thermo Scientific) or Halt Phosphatase Inhibitor Cocktail (Thermo Scientific) along with 0.5 M EDTA and lysed for 20 min on ice on a rocking plate. The lysates were then sonicated, centrifuged at 10,000 rpm for 10 min at 4°C and the supernatants were collected for further analysis. The protein concentration was determined using a Micro BCA™ Protein Assay Kit (Thermo Scientific) according to the manufacturer’s instructions. Equal amounts of proteins (15 μg) were electrophoresed on SDS-Page gels and transferred onto a nitrocellulose membranes. The membranes were blocked in 5% non-fat milk prepared in PBS containing 0.1% Tween-20 (TPBS) for 1 h. After blocking, the membranes were incubated with specific primary antibodies: PARP, p53, p21^Waf1/Cip1, cdc2, cyclin E, cytochrome c, caspase-3,8,9 and GAPPH overnight at 4°C, then washed and incubated with horseradish peroxidase (HRP)-conjugated secondary antibodies for 1 h at room temperature. All the antibodies were purchased from Cell Signaling and were diluted 1:1000 in 5% milk in TPBS. Finally, the membranes were washed and incubated with a SuperSignal™ West Pico Chemiluminescent Substrate (Thermo Scientific). The chemiluminescence signals were captured using a ChemiDoc™ XRS+ System (BioRad). The experiments were performed at least three times.

MCF-7 cells = test: Western blot of cell cycle and cell death proteins; format: cell-based, human; settings: 24 h, L^9 at four-fold IC50
Method: as §3

U-251 cells = test: Western blot of cell cycle and cell death proteins; format: cell-based, human; settings: 24 h
Method: as §3

[2] = cited from earlier work

SMILES: Nc1cccnc1C=NNC(=S)N1CCN(c2ccccn2)CC1 [L^8, N’-[(3-aminopyridin-2-yl)methylidene]-4-(pyridin-2-yl)piperazine-1-carbothiohydrazide]
IC50 (HCT116 p53^+/+): 1900 ± 292 nM
IC50 (HCT116 p53^-/-): 139 ± 20 nM
IC50 (Hs683): 1160 ± 307 nM
IC50 (MCF-7): 1120 ± 113 nM
IC50 (U-251): 1070 ± 280 nM
IC50 (NHDF): > 25000 nM
melting point: 210 to 211 °C

SMILES: Nc1cccnc1C=NNC(=S)N1CCN(c2ccc(C(F)(F)F)cn2)CC1 [L^9, N’-[(3-aminopyridin-2-yl)methylidene]-4-[5-(trifluoromethyl)pyridin-2-yl]piperazine-1-carbothiohydrazide]
IC50 (HCT116 p53^+/+): 422 ± 113 nM
IC50 (HCT116 p53^-/-): 123 ± 61 nM
IC50 (Hs683): 844 ± 238 nM
IC50 (MCF-7): 204 ± 24 nM
IC50 (U-251): 277 ± 58 nM
IC50 (NHDF): > 25000 nM

SMILES: Nc1cccnc1C=NNC(=S)N1CCN(c2ncc(C(F)(F)F)cc2Cl)CC1 [L^10, N’-[(3-aminopyridin-2-yl)methylidene]-4-[3-chloro-5-(trifluoromethyl)pyridin-2-yl]piperazine-1-carbothiohydrazide]
IC50 (HCT116 p53^+/+): 170 ± 15 nM
IC50 (HCT116 p53^-/-): 159 ± 11 nM
IC50 (Hs683): 195 ± 21 nM
IC50 (MCF-7): 258 ± 40 nM
IC50 (U-251): 137 ± 16 nM
IC50 (NHDF): > 25000 nM
melting point: 199 to 200 °C

SMILES: Nc1cccnc1C=NNC(=S)N1CCN(c2ncccn2)CC1 [L^11, N’-[(3-aminopyridin-2-yl)methylidene]-4-(pyrimidin-2-yl)piperazine-1-carbothiohydrazide]
IC50 (HCT116 p53^+/+): 668 ± 45 nM
IC50 (HCT116 p53^-/-): 650 ± 55 nM
IC50 (Hs683): 2840 ± 581 nM
IC50 (MCF-7): 1730 ± 388 nM
IC50 (U-251): 1270 ± 374 nM
IC50 (NHDF): > 25000 nM
melting point: 198 to 199 °C

SMILES: c1ccncc1 [pyridine]
logK ([2]; tabulated value): 5.23

The next lines start with results.

melting point: 217 to 218 °C
SMILES: Nc1cccnc1C=NNC(=S)N1CCN(c2cnccn2)CC1 [L^12, N’-[(3-aminopyridin-2-yl)methylidene]-4-(pyrazin-2-yl)piperazine-1-carbothiohydrazide]
IC50 (HCT116 p53^+/+): 435 ± 108 nM
IC50 (HCT116 p53^-/-): 342 ± 42 nM
IC50 (Hs683): 2600 ± 237 nM
IC50 (MCF-7): 2220 ± 638 nM
IC50 (U-251): 743 ± 109 nM
IC50 (NHDF): > 25000 nM

logK1 [1]: 10.64
logK2 [1]: 3.48
logβ1H ([1]; error 1σ): 10.64 (1)
logβ2H ([1]; error 1σ): 14.12 (1)
SMILES: NC(=S)NN=Cc1ncccc1N [Triapine, 3-aminopyridine-2-carboxaldehyde thiosemicarbazone]
Therapeutic index (TI) NHDF vs. HCT116 p53^+/+ (HCT116 p53^+/+): >22
IC50 (HCT116 p53^+/+): 1120 ± 277 nM
Therapeutic index (TI) NHDF vs. HCT116 p53^-/- (HCT116 p53^-/-): >19
IC50 (HCT116 p53^-/-): 1340 ± 338 nM
Therapeutic index (TI) NHDF vs. Hs683 (Hs683): >14
IC50 (Hs683): 1760 ± 292 nM
Therapeutic index (TI) NHDF vs. MCF-7 (MCF-7): >11
IC50 (MCF-7): 2330 ± 431 nM
Therapeutic index (TI) NHDF vs. U-251 (U-251): >17
IC50 (U-251): 1480 ± 558 nM
IC50 (NHDF): > 25000 nM
cytochrome c (HCT116 p53^+/+ cells): release of cytochrome c
expression of cyclin E (HCT116 p53^+/+ cells): overexpression
cytochrome c (MCF-7 cells): release of cytochrome c
expression of cdc2 (MCF-7 cells): much stronger
expression of cyclin E (MCF-7 cells): overexpression
cytochrome c (U-251 cells; U-251): release of cytochrome c
expression of cyclin E (U-251 cells; U-251, L^9 at four-fold IC50): overexpression
PARP cleavage (U-251 cells; glioma cell (U-251)): PARP cleavage
logK1 ([2]; literature value): 10.86
logK2 ([2]; literature value): 3.79
logβ1H ([2]; literature value): 10.86 (1)^[[45]^]
logβ2H ([2]; literature value): 14.65 (1)^[[45]^]
